The record followed here is article PMC3170524 (Physiological research / Academia Scientiarum Bohemoslovaca, 2010).

Numbering of substitutions follows the chain as printed.

Holding throughout (assay): whole-cell patch clamp, peak current dose-response
Holding throughout (type): cell-based

The target in assay [1] is T1, rat P2X4R (Rattus norvegicus, UniProt P51577, C126A).
T1 sequence (P51577 1-388 C126A): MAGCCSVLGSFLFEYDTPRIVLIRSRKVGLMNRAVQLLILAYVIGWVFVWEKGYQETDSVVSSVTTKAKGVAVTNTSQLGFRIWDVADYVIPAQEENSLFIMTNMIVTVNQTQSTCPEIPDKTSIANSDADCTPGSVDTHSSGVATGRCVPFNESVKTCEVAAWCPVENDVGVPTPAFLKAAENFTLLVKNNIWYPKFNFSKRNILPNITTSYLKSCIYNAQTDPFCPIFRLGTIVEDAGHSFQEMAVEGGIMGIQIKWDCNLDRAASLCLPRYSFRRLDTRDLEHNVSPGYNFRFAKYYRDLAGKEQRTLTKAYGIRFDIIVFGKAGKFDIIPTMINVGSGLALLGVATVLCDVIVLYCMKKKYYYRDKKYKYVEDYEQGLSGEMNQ

Assay [2] addresses T2, rat P2X4R (Rattus norvegicus, UniProt P51577, C132T/C159T).
T2 sequence (P51577 1-388 C132T/C159T): T1 sequence (P51577 1-388 C126A) with A126C, C132T, C159T

Assay [3] deals with T3, rat P2X4R (Rattus norvegicus, UniProt P51577, C165T).
T3 sequence (P51577 1-388 C165T): T1 sequence (P51577 1-388 C126A) with A126C, C165T

Assay [4] has as its target T4, rat P2X4R (Rattus norvegicus, UniProt P51577).
T4 sequence (P51577 1-388): T1 sequence (P51577 1-388 C126A) with A126C

Consider `Nc1ncnc2c1ncn2[C@@H]1O[C@H](COP(=O)(O)OP(=O)(O)OP(=O)(O)O)[C@@H](O)[C@H]1O` [ATP], for which the concentration giving a half-maximal response (EC50) worked out at 24 ± 5.6 µM on rat P2X4R [1], 5.3 ± 0.8 µM on rat P2X4R [2], 45 ± 3.8 µM at rat P2X4R [3] and 4.6 ± 0.5 µM on rat P2X4R [4].
